What was measured:
[1] = molecular target: KDR (VEGFR2) (Homo sapiens (Human), UniProt P35968); assay: Z′-LYTE kinase inhibition assay (Invitrogen), KDR; assay type: biochemical; settings: Z′-LYTE method; for inhibition at 1 µM: 1 μM compound, read-out: % inhibition at 1 μM against KDR; for IC50: read-out: IC50 against KDR
Protocol: (§1) Inhibitory activities Inhibitory activities of compounds against BRAF, and BRAF V600E were measured by Invitrogen using Z′-LYTE® Method as briefly described in the following. 4× Test compounds are dissolved in 1% DMSO. […] ATP solutions are diluted to a 4×ATP working concentration in Kinase Buffer (50 mM HEPES pH 7.5, 0.01% BRIJ-35, 10 mM MgCl2, 1 mM EGTA). Reaction started by 30-second shaking of mixture consisting of 2.5 μL 4× test compound, […] and 2.5 μL 4×ATP Solution on Bar-coded Corning, low volume NBS, black 384-well plate (Corning Cat. #3676). Then the mixture was incubated for 60-minute at room temperature for the kinase reaction, followed by addition of 5 μL of a 1:1024 dilution of development reagent A and 30-second plate shake. The mixture was then incubated for another 60-minute at room temperature for development reaction. Fluorescence was read by plate reader. IC50 was calculated by plotting the concentration of compound vs the percentage of inhibition in treated wells using GraphPad Prism 5.
Inhibitory activities of compounds against KDR (VEGFR2) were also measured by Invitrogen using Z′-LYTE® Method as described above with the following modification. The 2× KDR (VEGFR2)/Tyr 01 mixture is prepared in 50 mM HEPES pH 7.5, 0.01% BRIJ-35, 10 mM MgCl2, 1 mM EGTA. The final 10 μL Kinase Reaction consists of 0.5-11.7 ng KDR (VEGFR2) and 2 μM Tyr 01 in 50 mM HEPES pH 7.5, 0.01% BRIJ-35, 10 mM MgCl2, 1 mM EGTA. After the 1 hour Kinase Reaction incubation, 5 μL of a 1:256 dilution of Development Reagent B is added.
The scale utilized in Table 5 is as follows: +++ less than 100 nM; and ++ greater than 100 nM

[2] = system: A549 cells; assay: Inhibition of cancer cell growth, MTT assay, A549; assay type: cell-based; settings: Homo sapiens, A549, 72 h exposure
Protocol: (§2) Inhibition of cell growth by compounds was measured using MTT assay (Mosmann, T., Journal of Immunological Methods, 1983, 65, 55-63). Tumor cell lines were purchased from ATCC (American Type Culture Collection, Manassas, Va.). All cell lines were maintained in RPMI 1640 (Hyclone) supplemented with 10% fetal bovine serum (FBS, Hyclone), glutamine (2 mM, Hyclone), and antibiotics (penicillin 100 U/mL and streptomycin 50 μg/mL) at 37° C. in a humidified atmosphere of 5% CO2 in air. Taxol (as a positive control, Sigma) and compounds were dissolved in DMSO (Sigma), and the final concentration of DMSO in the medium was 1%. Tumor cells were plated in 96-well plates at densities of about 4000 cells/well of a 96-well plate and allowed to adhere/grow for 24 h. They were then treated with various concentrations of drug for 72 h. 3-(4,5-Dimethylthiazol-2-yl)-2,5-diphenyltetrazolium bromide (MTT, Sigma) was used to determine the number of viable cells at the time of compound addition and the number of cells remaining after 72 h compound exposure. The number of cells remaining after 72 h was compared to the number of viable cells at the time of compound addition by measuring the absorbance at 570 nm, allowing for the calculation of growth inhibition.
(§3) All concentrations of compounds were tested in triplicate and controls were averaged over 4 wells. IC50 was calculated by plotting the concentration of compound vs the percentage of inhibition in treated wells using GraphPad Prism 5. […] The scale utilized in Table 6 is as follows: +++ less than 1000 nM; ++ between 1000 nM and 5000 nM; and + greater than 5000 nM. The scale utilized in Table 7 is as follows: +++ less than 2000 nM; ++ between 2000 nM and 5000 nM; and + greater than 5000 nM.

[3] = molecular target: BRAF V600E (Homo sapiens (Human), UniProt P15056, V600E); assay: Z′-LYTE kinase inhibition assay (Invitrogen), BRAF V600E; assay type: biochemical; settings: Z′-LYTE method; for inhibition at 1 µM: 1 μM compound, read-out: % inhibition at 1 μM against BRAF V600E; for IC50: read-out: IC50 against BRAF V600E
BRAF V600E, sequence (P15056 whole entry V600E): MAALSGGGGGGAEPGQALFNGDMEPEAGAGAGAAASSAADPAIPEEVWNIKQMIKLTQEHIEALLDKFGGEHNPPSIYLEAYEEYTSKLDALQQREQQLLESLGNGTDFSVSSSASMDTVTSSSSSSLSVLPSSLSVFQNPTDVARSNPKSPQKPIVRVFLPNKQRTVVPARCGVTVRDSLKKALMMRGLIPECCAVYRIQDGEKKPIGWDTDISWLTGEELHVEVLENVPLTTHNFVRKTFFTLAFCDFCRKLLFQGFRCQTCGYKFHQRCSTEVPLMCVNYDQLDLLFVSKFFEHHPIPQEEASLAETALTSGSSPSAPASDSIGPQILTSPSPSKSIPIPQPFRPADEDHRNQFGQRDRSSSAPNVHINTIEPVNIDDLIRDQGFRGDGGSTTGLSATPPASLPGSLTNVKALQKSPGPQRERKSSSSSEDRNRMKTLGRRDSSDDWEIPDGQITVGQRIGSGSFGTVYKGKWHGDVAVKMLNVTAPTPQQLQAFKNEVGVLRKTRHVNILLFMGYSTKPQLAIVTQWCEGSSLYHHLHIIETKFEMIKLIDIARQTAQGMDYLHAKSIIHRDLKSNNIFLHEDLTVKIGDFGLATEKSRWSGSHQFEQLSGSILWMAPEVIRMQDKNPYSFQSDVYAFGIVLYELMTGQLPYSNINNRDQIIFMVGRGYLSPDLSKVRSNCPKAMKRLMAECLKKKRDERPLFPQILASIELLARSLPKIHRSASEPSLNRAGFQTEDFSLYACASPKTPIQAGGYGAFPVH
Protocol: as §1
The scale utilized in Table 3 is as follows: +++ less than 100 nM; and ++ greater than 100 nM.

[4] = system: A375 cells; assay: Inhibition of cancer cell growth, MTT assay, A375; assay type: cell-based; settings: Homo sapiens, A-375, 72 h exposure
Protocol: as §2, §3

KDR (VEGFR2), sequence (P35968 20-1356): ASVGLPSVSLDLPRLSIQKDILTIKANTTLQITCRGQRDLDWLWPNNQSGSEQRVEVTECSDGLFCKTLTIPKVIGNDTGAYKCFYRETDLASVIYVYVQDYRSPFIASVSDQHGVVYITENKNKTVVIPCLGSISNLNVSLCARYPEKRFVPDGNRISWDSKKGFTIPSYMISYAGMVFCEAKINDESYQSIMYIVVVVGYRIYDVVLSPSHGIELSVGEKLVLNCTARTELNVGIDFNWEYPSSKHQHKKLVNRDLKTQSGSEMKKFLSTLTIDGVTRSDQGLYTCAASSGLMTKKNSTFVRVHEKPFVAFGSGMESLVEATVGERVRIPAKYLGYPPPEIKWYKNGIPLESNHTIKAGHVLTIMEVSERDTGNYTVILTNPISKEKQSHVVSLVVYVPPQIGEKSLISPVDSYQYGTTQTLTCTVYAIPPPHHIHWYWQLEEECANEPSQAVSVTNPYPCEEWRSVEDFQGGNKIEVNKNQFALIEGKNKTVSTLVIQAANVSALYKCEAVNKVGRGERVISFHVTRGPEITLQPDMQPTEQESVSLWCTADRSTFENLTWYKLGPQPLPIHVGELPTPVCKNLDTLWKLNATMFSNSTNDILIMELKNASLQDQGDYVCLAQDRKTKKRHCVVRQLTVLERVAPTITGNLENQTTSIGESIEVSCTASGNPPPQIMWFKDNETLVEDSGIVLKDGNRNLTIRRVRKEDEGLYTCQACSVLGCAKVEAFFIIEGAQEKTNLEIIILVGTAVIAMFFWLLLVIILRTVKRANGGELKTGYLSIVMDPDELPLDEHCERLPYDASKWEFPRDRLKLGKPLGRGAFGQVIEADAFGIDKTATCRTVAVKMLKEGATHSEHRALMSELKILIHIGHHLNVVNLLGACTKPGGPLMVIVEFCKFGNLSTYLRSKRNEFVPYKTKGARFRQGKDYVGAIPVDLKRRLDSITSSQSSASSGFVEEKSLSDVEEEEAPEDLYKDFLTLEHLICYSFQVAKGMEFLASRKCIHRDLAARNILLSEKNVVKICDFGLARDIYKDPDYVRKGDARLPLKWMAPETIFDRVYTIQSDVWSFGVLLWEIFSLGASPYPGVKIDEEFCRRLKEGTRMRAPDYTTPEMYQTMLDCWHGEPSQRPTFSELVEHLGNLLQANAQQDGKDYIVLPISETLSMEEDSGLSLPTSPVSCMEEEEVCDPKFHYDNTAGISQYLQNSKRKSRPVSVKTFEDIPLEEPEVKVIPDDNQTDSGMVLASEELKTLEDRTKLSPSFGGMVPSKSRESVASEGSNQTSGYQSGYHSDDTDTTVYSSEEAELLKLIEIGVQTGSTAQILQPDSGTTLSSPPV

Row | inhibition at 1 µM [1] | IC50 [2] | inhibition at 1 µM [3] | IC50 [4] | IC50 [1] | IC50 [3] | Compound
1 | < 70% | > 5 µM | 70 to 89% | > 5 µM |  |  | O=C(Nc1cccc(C(F)(F)F)c1)Nc1ccc(F)c(C(=O)c2ccc3nccnc3c2)c1F [Compound C010, 1-(2,4-difluoro-3-(quinoxaline-6-carbonyl)phenyl)-3-(3-(trifluoromethyl)phenyl)urea]
2 | < 70% | > 5 µM | 70 to 89% | > 5 µM |  |  | O=C(Nc1cccc(F)c1)Nc1ccc(F)c(C(=O)c2ccc3nccnc3c2)c1F [Compound C011, 1-(2,4-difluoro-3-(quinoxaline-6-carbonyl)phenyl)-3-(3-fluorophenyl)urea]
3 | < 70% | < 2 µM | < 70% | 1 to 5 µM |  |  | O=C(Nc1ccc(Cl)c(C(F)(F)F)c1)Nc1ccc(F)c(C(=O)c2ccc3nccnc3c2)c1F [Compound C012, 1-(4-chloro-3-(trifluoromethyl)phenyl)-3-(2,4-difluoro-3-(quinoxaline-6-carbonyl)phenyl)urea]
4 | 70 to 89% | 2 to 5 µM | > 89% | 1 to 5 µM |  |  | O=C(Nc1cccc(F)c1)Nc1ccc(F)c(C(=O)c2ccc3nccnc3c2)c1 [Compound C013, 1-(4-fluoro-3-(quinoxaline-6-carbonyl)phenyl)-3-(3-fluorophenyl)urea]
5 | 70 to 89% | > 5 µM | > 89% | > 5 µM | > 0.1 µM | < 0.1 µM | O=C(Nc1cccc(F)c1)Nc1cccc(C(=O)c2ccc3ncc(N4CCOCC4)nc3c2)c1 [Compound C016, 1-(3-fluorophenyl)-3-(3-(3-morpholinoquinoxaline-6-carbonyl)phenyl)urea]
6 | > 89% | > 5 µM | > 89% | > 5 µM | < 0.1 µM | < 0.1 µM | O=C(Nc1cccc(F)c1)Nc1cccc(C(=O)c2ccc3ncc(N4CCCC4)nc3c2)c1 [Compound C019, 1-(3-fluorophenyl)-3-(3-(3-(pyrrolidin-1-yl)quinoxaline-6-carbonyl)phenyl)urea]
7 | > 89% | > 5 µM | 70 to 89% | 1 to 5 µM |  |  | O=C(Nc1cccc(C(=O)c2ccc3ncc(N4CCCC4)nc3c2)c1)Nc1ccc(Cl)c(C(F)(F)F)c1 [Compound C021, 1-(4-chloro-3-(trifluoromethyl)phenyl)-3-(3-(3-(pyrrolidin-1-yl)quinoxaline-6-carbonyl)phenyl)urea]
8 | 70 to 89% | < 2 µM | > 89% | > 5 µM |  |  | O=C(Nc1cccc(F)c1)Nc1cc(F)c(F)c(C(=O)c2ccc3nccnc3c2)c1 [Compound C024, 1-(3,4-difluoro-5-(quinoxaline-6-carbonyl)phenyl)-3-(3-fluorophenyl)urea]
9 | < 70% | > 5 µM | > 89% | > 5 µM |  |  | O=C(Nc1cccc(F)c1)Nc1cc(F)cc(C(=O)c2ccc3nccnc3c2)c1 [Compound C025, 1-(3-fluoro-5-(quinoxaline-6-carbonyl)phenyl)-3-(3-fluorophenyl)urea]
10 | 70 to 89% | < 2 µM | > 89% | > 5 µM |  |  | O=C(Nc1cc(F)cc(C(=O)c2ccc3nccnc3c2)c1)Nc1cccc(C(F)(F)F)c1 [Compound C027, 1-(3-fluoro-5-(quinoxaline-6-carbonyl)phenyl)-3-(3-(trifluoromethyl)phenyl)urea]
11 | < 70% | 2 to 5 µM | > 89% |  |  |  | O=C(Nc1cc(F)cc(F)c1)Nc1cc(F)cc(C(=O)c2ccc3ncc(N4CCOCC4)nc3c2)c1 [Compound C093]
12 | < 70% | > 5 µM | > 89% |  |  |  | O=C(Nc1cc(F)cc(F)c1)Nc1ccc(F)c(C(=O)c2ccc3ncc(N4CCOCC4)nc3c2)c1 [Compound C094, 1-(3,5-difluorophenyl)-3-(4-fluoro-3-(3-morphlinoquinoxaline-6-carbonyl)phenyl)urea]
13 | 70 to 89% | > 5 µM | > 89% |  |  |  | O=C(Nc1ccc(F)cc1)Nc1cc(F)c(F)c(C(=O)c2ccc3ncc(N4CCOCC4)nc3c2)c1 [Compound C095, 1-(3,4-difluoro-5-(3-morpholinoquinoxaline-6-carbonyl)phenyl)-3-(4-fluorophenyl)urea]
14 | < 70% | > 5 µM | > 89% |  |  |  | O=C(Nc1ccc(F)c(F)c1)Nc1cc(F)c(F)c(C(=O)c2ccc3ncc(N4CCOCC4)nc3c2)c1 [Compound C096]
15 | < 70% | 2 to 5 µM | > 89% |  |  |  | O=C(Nc1cc(F)cc(F)c1)Nc1cc(F)c(F)c(C(=O)c2ccc3ncc(N4CCOCC4)nc3c2)c1 [Compound C097]
16 | 70 to 89% | 2 to 5 µM | > 89% |  |  |  | O=C(Nc1cccc(F)c1)Nc1cc(F)c(F)c(C(=O)c2ccc3ncc(N4CCNCC4)nc3c2)c1 [Compound C098]
17 | 70 to 89% | < 2 µM | > 89% |  | > 0.1 µM |  | O=C(Nc1ccc(F)cc1)Nc1cc(F)c(F)c(C(=O)c2ccc3ncc(N4CCNCC4)nc3c2)c1 [Compound C099, 1-(3,4-difluoro-5-(3-(piperazin-1-yl)quinoxaline-6-carbonyl)phenyl)-3-(4-fluorophenyl)urea]
18 | 70 to 89% | 2 to 5 µM | > 89% |  |  |  | O=C(Nc1cc(F)cc(F)c1)Nc1ccc(F)c(C(=O)c2ccc3ncc(N4CCNCC4)nc3c2)c1 [Compound C101, 1-(3,5-difluorophenyl)-3-(4-fluoro-3-(3-(piperazin-1-yl)quinoxaline-6-carbonyl)phenyl)urea]
19 | > 89% | 2 to 5 µM | > 89% |  | < 0.1 µM |  | O=C(Nc1ccc(F)c(F)c1)Nc1ccc(F)c(C(=O)c2ccc3ncc(N4CCNCC4)nc3c2)c1 [Compound C102, 1-(3,4-difluorophenyl)-3-(4-fluoro-3-(3-(piperazin-1-yl)quinoxaline-6-carbonyl)phenyl)urea]
20 |  | 2 to 5 µM |  |  |  |  | O=C(Nc1ccc(F)c(F)c1)Nc1cc(F)c(F)c(C(=O)c2ccc3ncc(N4CCNCC4)nc3c2)c1 [Compound C103, 1-(3,4-difluoro-5-(3-(piperazin-1-yl)quinoxaline-6-carbonyl)phenyl)-3-(3,4-difluorophenyl)urea]
21 |  | > 5 µM |  |  |  |  | O=C(Nc1cc(F)cc(F)c1)Nc1cc(F)c(F)c(C(=O)c2ccc3ncc(N4CCNCC4)nc3c2)c1 [Compound C104, 1-(3,4-difluoro-5-(3-(piperazin-1-yl)quinoxaline-6-carbonyl)phenyl)-3-(3,5-difluorophenyl)urea]
22 | 70 to 89% | > 5 µM | 70 to 89% |  |  |  | O=C(Nc1ccc(F)c(C(=O)c2ccc3nccnc3c2)c1F)c1cccc(C(F)(F)F)c1 [Compound C114, N-(2,4-difluoro-3-(quinoxaline-6-carbonyl)phenyl)-3-(trifluoromethyl)benzamide]

Source: patent US10759766B2, “Certain chemical entities, compositions, and methods” (NeuPharma, Inc., priority 2011, dated 2020)
